Experiments:
[1] = test system: Male Kun Ming strain mice; experiment: Effect of compound F on blood sugar elevation after oral dextrose; type: in vivo; settings: dose 50 mg/kg oral, 7 days
Protocol: Effect of compound F on blood sugar elevation in rat.
Male Kun Ming strain mice are divided into randomly experimental groups, and they respectively took orally the compound F at […]. The positive control group took orally glybenclamide 50 mg/kg, and the blank control group and normal control group take orally the same distilled water. The volume of medicine given is 20 ml/kg, lasting 7 days. They are forbidden to give feedstuff 10 hours before the last time of administration. Each group is given 2.5 g/kg (10 ml/kg) dextrose solution except of normal control group. Before and after 30 minute of administration of dextrose, 100 ul of blood was sampled from the eyepit, and the content of dextrose in serum was measured by way of dextrose oxygenation enzyme.

normal mice = experiment: Effect of compound B on blood sugar in normal mice; type: in vivo; settings: for Value of blood sugar: dose 100 mg/kg
Protocol: The positive control group orally took tolbutol at 100 mg/kg. The blank control group took orally same distilled water. The volume of medicine given is 20 ml/kg, lasting 14 days. The test drug was administered (provided that they are pre-forbidden to give food 5 hrs before administration) after the days 1, 3, 7, 14 of administration. 3 hrs after administration, blood (10 ul) was taken from the eyepit. The content of dextrose in serum was measured by reagent box.

[2] = test system: blood platelet aggregation in rabbits; experiment: Effect of compound B on blood platelet aggregation in rabbits in vitro (ADP); type: cell-based, rabbit
Protocol: Blood was taken from rabbit heart by puncture, to which was added 3.8% potassium citrate for anticoagulation (1:9). Certification for 15 minute at 1000 rpm takes the upper layer as rich blood platelet plasma (prp), and then centrifugation for 10 minutes with 4000 rpm takes the supernatant as poor blood platelet plasma (ppp). […] 10 μl physiological brine of aspirin was added to a positive control tube, then it was put into a measuring cell after warming for 2 minutes at 37° C. 10 ul of physiological brine solution of ADP sodium salt was added with stirring. The final concentration is […]. The maximal aggregation ratio on PAM-1 type of blood platelet instrument was observed within 3 minutes.

rabbit's blood platelets = experiment: Effect of compound F on aggregation of rabbit's blood platelets in vitro; type: cell-based
Protocol: Effect of Compound F on Blood Platelet Aggregation in Rabbit
Take blood from rabbit heart by puncturing, add 3.8% of potassium citrate for anticoagulation (1:9), centrifuge for 15 minutes at 1000 rpm, take the upper layer as blood platelet rich plasma (prp), and then centrifuge for 10 minutes at […], and take supematant as blood platelet poor plasma (ppp). The final concentration of compound F is respectively 250, 500, 1000 μg/ml, and the final concentration is respectively 250, 500, 1000 ug/ml. Add 10 ul of physical brine of aspirin to the positive-control tube to a final concentration of 250 μg/ml, and add 10 μl of physical brine to the control tube […]. Observe the maximal aggregation ratio on PAM-1 type instrument of blood platelet aggregation within 3 minute.

Female SD rats = experiment: Effect on increasing blood sugar in rats caused by sucrose; type: in vivo, rat; settings: for Value of blood sugar: dose 100 mg/kg
Protocol: Female SD rats fasted for 24 hours and were randomly divided into several groups. […] The normal group, control group and blank group were given the same amount of water. The given medicine volume was […], after 30 minutes each group was given saccharose 1/kg(5 ml/kg) except the normal group, and blood was extracted from the eyes of rats after 30, 60 and 120 minutes respectively, the content of glucose in the serum was measured.

COc1ccc(Cl)cc1C(=O)NCCc1ccc(S(=O)(=O)NC(=O)NC2CCCCC2)cc1 [glybenclamide]
Value of blood sugar ([1]; 0 minute (before dextrose)): 4.48 ± 0.83 | Value of blood sugar ([1]; 30 minutes after dextrose): 8.18 ± 1.72

CCCCNC(=O)NS(=O)(=O)c1ccc(C)cc1 [tolbutol]
Effect on blood sugar of normal mice (in words) (normal mice; Compound B 50, 100, 200 mg/kg for 14 days, tolbutol from day 3): obvious effect for lowering the blood sugar of normal mice | Value of blood sugar (normal mice; day 1): 6.48 ± 1.18 | Value of blood sugar (normal mice; day 3): 5.22 ± 0.80 | Value of blood sugar (normal mice; day 7): 6.62 ± 0.96 | Value of blood sugar (normal mice; day 14): 5.75 ± 1.02

CC(=O)Oc1ccccc1C(=O)O [Aspirin, aspirin]
Inhibition of blood platelet aggregation (in words) ([2]; compound B 500, 1000 μg/ml, aspirin 250 μg/ml): obviously inhibit blood platelet from aggregating | Inhibition ratio ([2]; final concentration 250): 50.3 | Maximal aggregation ratio (%) ([2]; final concentration 250 (μg/ml), ADP, within 3 minutes): 23.7 ± 6.0 % | inhibition at 250 µg/mL (rabbit's blood platelets; Oryctolagus cuniculus, Platelet, final concentration 250 μg/ml, read-out: Inhibition rate (%)): 50.3% | Inhibition of aggregation of blood platelet (in words) (rabbit's blood platelets; compound F 500, 1000 μg/ml, aspirin 250 μg/ml): obviously inhibit the aggregation of blood platelet | Maximal aggregation rate (%) (rabbit's blood platelets; final concentration 250 μg/ml, within 3 minute): 23.7 ± 6.0 %

[H]/N=C(/N)N/C(=N/[H])NCCc1ccccc1 [phenformin]
Effect on the increased value of blood sugar (in words) (Female SD rats; compound B 200 mg/kg, performing 100 mg/kg, within 30 minutes): reduce the increased value of blood sugar remarkably | Value of blood sugar (Female SD rats; 30 minutes after sucrose): 4.24 ± 0.87 mmol/L | Value of blood sugar (Female SD rats; 60 minutes after sucrose): 4.74 ± 0.90 mmol/L | Value of blood sugar (Female SD rats; 120 minutes after sucrose): 4.79 ± 1.03 mmol/L
